Several values for one entry are separate records, joined by “and”; a condition that tells them apart may be missing. Equal values may be shown once.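 48-hour exposure; five concentrations; linearly interpolated endpoints. Here, GI50 denotes the concentration required for 50% inhibition of growth. Definition used: TGI = concentration required for complete inhibition of growth.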

Some test systems named below: OVCAR-8 ovarian; DLD-1 colon; TK-10 renal; OVCAR-3 ovarian; LXFL 529 NSCLC; MALME-3M melanoma; SNB-78 CNS; KM12 colon; T-47D breast; SF-539 CNS; HOP-92 NSCLC; SR leukemia; SNB-75 CNS; A498 renal; DMS 114 small cell lung.
Assay in all cases: growth of human tumour cells (NCI), 48 h

Take `Cc1ccc(C(=O)NCc2ccccc2)cc1N=NN(C)C`: the TGI with OVCAR-8 ovarian, with DLD-1 colon, with TK-10 renal, with OVCAR-3 ovarian, with LXFL 529 NSCLC and with MALME-3M melanoma was over 100 µM throughout. Moreover, the TGI with SNB-78 CNS, with KM12 colon, in the test on T-47D breast, in the test on SF-539 CNS, in the test with HOP-92 NSCLC and in the test with SR leukemia was over 100 µM each time.
Turning to `CCOC(=O)CCC(NC(=O)c1ccc(NCc2ccc3nc(-c4ccccc4)c(Cl)nc3c2)cc1)C(=O)OCC` (centres undefined), the TGI in the test with SNB-75 CNS is over 100 µM; with DLD-1 colon it was over 100 µM; in the test on A498 renal it was 78.6 µM; with TK-10 renal, over 100 µM; in the test with OVCAR-3 ovarian, 59.2 µM; with LXFL 529 NSCLC, over 100 µM. The TGI with MALME-3M melanoma is 26 µM; with SNB-78 CNS, over 100 µM; in the test on DMS 114 small cell lung, over 100 µM; in the test with KM12 colon, over 100 µM; in the test with SF-539 CNS it was over 100 µM; with HOP-92 NSCLC, 27.3 µM. Also, the TGI in the test with SR leukemia was over 100 µM.
With `Cc1ccc(NC(=O)C(=O)C2C(=O)NC(=O)NC2=O)cc1C`, the TGI in the test on OVCAR-8 ovarian, with SNB-75 CNS, in the test with DLD-1 colon, in the test with TK-10 renal, in the test with OVCAR-3 ovarian and in the test on LXFL 529 NSCLC was over 100 µM throughout. Also, the TGI in the test with MALME-3M melanoma, in the test with SNB-78 CNS, in the test on KM12 colon, with SF-539 CNS, with HOP-92 NSCLC and in the test on SR leukemia was over 100 µM each time.
On to `c1ccc2c(c1)OCCOCCOc1ccccc1OCCO2`, for which the TGI in the test on OVCAR-8 ovarian was over 100 µM; with SNB-75 CNS, over 100 µM; with DLD-1 colon it was over 100 µM; in the test with A498 renal, over 100 µM; in the test on TK-10 renal it was over 100 µM; in the test with OVCAR-3 ovarian, 70 µM. Further, the TGI with LXFL 529 NSCLC was over 100 µM; with MALME-3M melanoma it was 88.2 µM; in the test on SNB-78 CNS it was over 100 µM; with DMS 114 small cell lung, over 100 µM; in the test with KM12 colon, over 100 µM; in the test on SF-539 CNS, over 100 µM. The TGI in the test with HOP-92 NSCLC is over 100 µM.
Take `CC(=O)OCCOCNC(=S)N/N=C/c1ccc([N+](=O)[O-])s1`: the TGI with OVCAR-8 ovarian, in the test on SNB-75 CNS, in the test on DLD-1 colon, in the test with A498 renal, in the test with TK-10 renal and with OVCAR-3 ovarian was over 100 µM in each case. Also, the TGI with LXFL 529 NSCLC is over 100 µM; with MALME-3M melanoma it was over 100 µM; with SNB-78 CNS it was over 100 µM; in the test on DMS 114 small cell lung, 26.4 µM; with KM12 colon it was over 100 µM; in the test with SF-539 CNS, over 100 µM. The TGI in the test on HOP-92 NSCLC and with SR leukemia was over 100 µM each time.
On to `COc1ccc(/C=N/N=C(\N)NO)c(OC)c1C`, for which the TGI is over 100 µM in the test on OVCAR-8 ovarian; over 100 µM with DLD-1 colon; 87.6 µM in the test on A498 renal; over 100 µM in the test with OVCAR-3 ovarian; over 100 µM in the test on LXFL 529 NSCLC; 35.2 µM with MALME-3M melanoma. Moreover, the TGI with SNB-78 CNS was over 100 µM; in the test on DMS 114 small cell lung it was 71.9 µM; in the test on KM12 colon it was over 100 µM; with SF-539 CNS it was 54.1 µM; with HOP-92 NSCLC, 72.5 µM; in the test with SR leukemia, over 100 µM.
Take `CC(=O)O[C@]12CCCCCC1C1(O)C(O)CCCCC12` (some centres undefined): the TGI in the test with OVCAR-8 ovarian, in the test with SNB-75 CNS, in the test on TK-10 renal, in the test with LXFL 529 NSCLC, with MALME-3M melanoma and in the test with SNB-78 CNS was over 100 µM each time. Besides, the TGI with DMS 114 small cell lung, with KM12 colon and in the test with SR leukemia was over 100 µM throughout.
As for `CC(=O)O[C@@]12CO[C@@H]1CC(O)[C@@]1(C)C(=O)[C@H](O)C3=C(C)C(O)C[C@@](O)(C(OC(=O)c4ccccc4)C12)C3(C)C` (some centres undefined), the TGI with OVCAR-8 ovarian was over 74.9 µM; with SNB-75 CNS, 5.7 µM; with A498 renal, over 100 µM; in the test with TK-10 renal it was over 100 µM; with MALME-3M melanoma, over 100 µM; with SNB-78 CNS it was over 100 µM. The TGI in the test with KM12 colon is over 89.2 µM; in the test with T-47D breast it was over 100 µM; in the test on SF-539 CNS, 2.16 µM; in the test on HOP-92 NSCLC, over 100 µM; in the test on SR leukemia, over 100 µM.
`Nc1c(S(=O)(=O)c2ccccc2)c2nc3ccccc3nc2n2c1nc1ccccc12`: the TGI in the test on OVCAR-8 ovarian was over 63.4 µM; in the test on SNB-75 CNS, over 51.1 µM; with DLD-1 colon, over 100 µM; in the test with A498 renal, over 100 µM; with TK-10 renal, over 100 µM; with OVCAR-3 ovarian, over 100 µM. Further, the TGI with LXFL 529 NSCLC was over 100 µM; with MALME-3M melanoma it was over 80.9 µM; with SNB-78 CNS, over 62.1 µM; in the test on DMS 114 small cell lung, over 100 µM; in the test on KM12 colon it was over 100 µM; in the test on SF-539 CNS, over 53.9 µM. Further, the TGI in the test with HOP-92 NSCLC and in the test on SR leukemia was over 100 µM each time.
Regarding `Cc1c2ccc3ccccc3c2c[n+]2ccccc12`, the TGI with OVCAR-8 ovarian was 39.6 µM; in the test on SNB-75 CNS, 14.3 µM; with DLD-1 colon it was over 100 µM; in the test on A498 renal, over 94.4 µM; in the test with TK-10 renal, over 100 µM; in the test on OVCAR-3 ovarian it was 35.4 µM. Further, the TGI is 24.2 µM with LXFL 529 NSCLC; 3.77 µM in the test on MALME-3M melanoma; over 100 µM with SNB-78 CNS; 20.7 µM in the test on DMS 114 small cell lung; 12 µM with KM12 colon; 5.09 µM in the test on T-47D breast. Moreover, the TGI is 43.4 µM in the test on SF-539 CNS, 60.8 µM in the test with HOP-92 NSCLC and 53.5 µM in the test on SR leukemia.
As for `CC(=O)c1ccc2c(c1)C(=O)c1sc(C(C)=O)cc1C2=O`, the GI50 is 0.587 µM in the test on OVCAR-8 ovarian; 0.329 µM in the test on OVCAR-3 ovarian; 0.313 µM in the test with KM12 colon; 1.73 µM with T-47D breast; 0.0247 µM in the test with SR leukemia. Besides, the TGI with OVCAR-8 ovarian is 1.69 µM and 2.67 µM; with SNB-75 CNS, 6.27 µM and 4.85 µM; with A498 renal, 50 µM; in the test with TK-10 renal, 5.55 µM; in the test with OVCAR-3 ovarian it was 2.36 µM and 1.85 µM; in the test with MALME-3M melanoma it was 1.2 µM. For the same molecule, the TGI in the test on KM12 colon was 2.34 µM and 1.48 µM; with T-47D breast, 3.01 µM and 4.31 µM; in the test with SF-539 CNS it was 1.86 µM; in the test with HOP-92 NSCLC, 50 µM; in the test with SR leukemia, 50 µM and > 100 µM.
Take `CCCCCCCCCCCC(=O)OC[C@@H](C[As](=O)(O)O)OC(=O)CCCCCCCCCCC`: the TGI turned out to be 23.6 µM in the test on OVCAR-8 ovarian; 16.6 µM in the test on SNB-75 CNS; 33.3 µM in the test on DLD-1 colon; 24.3 µM with A498 renal; 25 µM with TK-10 renal; 16.5 µM with OVCAR-3 ovarian. The TGI in the test with LXFL 529 NSCLC is 17.7 µM; in the test on MALME-3M melanoma, 8.84 µM; with DMS 114 small cell lung, 4.54 µM; in the test with KM12 colon, 17.1 µM; in the test on T-47D breast, 37.7 µM; in the test on SF-539 CNS it was 27.8 µM. Besides, the TGI is 4.44 µM in the test on HOP-92 NSCLC and 57.2 µM in the test on SR leukemia.
With `OC(C/C=N/N=C/CC(O)(C(F)(F)Cl)C(F)(F)Cl)(C(F)(F)Cl)C(F)(F)Cl`, the TGI with OVCAR-8 ovarian, in the test with SNB-75 CNS, in the test with A498 renal, in the test on TK-10 renal, in the test with OVCAR-3 ovarian and with MALME-3M melanoma was over 10 µM each time. The TGI in the test with KM12 colon, in the test on T-47D breast, with SF-539 CNS, in the test on HOP-92 NSCLC and in the test on SR leukemia was over 10 µM throughout.
Regarding `C=CC1(CC[C@]2(c3ccc(OC)c(OC)c3)C=[N+]([O-])O[C@H](O[C@@H]3CCCC[C@H]3C(C)(C)c3ccccc3)C2)OCC(C)(C)CO1`, the TGI with OVCAR-8 ovarian was 40.6 µM; in the test with SNB-75 CNS, over 52.2 µM; with A498 renal, over 61 µM; in the test with TK-10 renal, over 67.8 µM; in the test on OVCAR-3 ovarian, 25.1 µM; in the test with MALME-3M melanoma, 24.8 µM. Further, the TGI is 41.4 µM in the test on KM12 colon; over 46.7 µM with T-47D breast; 31.2 µM in the test with SF-539 CNS; over 46.6 µM in the test with HOP-92 NSCLC; over 38.9 µM in the test with SR leukemia.
Turning to `CS(=O)(=O)N1CC(CCl)c2ccc(O)cc21` (centres undefined), the TGI with OVCAR-8 ovarian came out at 7.33 µM; in the test with SNB-75 CNS, 8.4 µM; in the test with A498 renal, 3.78 µM; in the test on TK-10 renal, 6.98 µM; in the test with OVCAR-3 ovarian, 9.3 µM; in the test on MALME-3M melanoma, 5 µM. The TGI in the test on KM12 colon was found to be 7.83 µM; with T-47D breast, 48.2 µM; in the test with SF-539 CNS it was 5.05 µM; in the test with HOP-92 NSCLC, 9.05 µM; in the test on SR leukemia it was 77.4 µM.
Regarding `O=[N+]([O-])c1c(F)c(F)c2c(c1F)N(CCCCCl)c1ccccc1S2`, the TGI stood at 11.3 µM in the test on OVCAR-8 ovarian; 17.2 µM with SNB-75 CNS; 21.1 µM in the test with A498 renal; 32.5 µM with TK-10 renal; 19.5 µM in the test with OVCAR-3 ovarian; 31.4 µM with MALME-3M melanoma. The TGI in the test on KM12 colon was 23.5 µM; in the test with T-47D breast, 27.7 µM; with SF-539 CNS, 31.9 µM; in the test with HOP-92 NSCLC, 39 µM; in the test with SR leukemia, over 100 µM.
